Source: article PMC7194293, “Living on the Edge: Physiological and Kinetic Trade-Offs Shape Thermal Tolerance in Intertidal Crabs From Tropical to Sub-Antarctic South America” (Frontiers in Physiology, 2020)
Where two headings read alike, the source gives them in different places.

Tests used:
Assay in all cases: NADH oxidation at […] nm, muscle homogenate supernatant
[1] = test system: T1, LDH (muscle lactate dehydrogenase); assay type: biochemical, Aratus pisonii; details: 150 uM NADH, 80 mM imidazole-HCl pH 6.9, 26 °C (FRT); read-out: Km^Pyr / (mM) / FRT
T1 construct: native, not purified; supernatant of abdominal muscle homogenate, pooled crabs, Pernambuco, Brazil

[2] = test system: T1, LDH (muscle lactate dehydrogenase); assay type: biochemical, Pachygrapsus transversus; details: 150 uM NADH, 80 mM imidazole-HCl pH 6.9, 26 °C (FRT); read-out: Km^Pyr / (mM) / FRT
[3] = test system: T1, LDH (muscle lactate dehydrogenase); assay type: biochemical, Cardisoma guanhumi; details: 150 uM NADH, 80 mM imidazole-HCl pH 6.9, 26 °C (FRT); read-out: Km^Pyr / (mM) / FRT
[4] = test system: T2, LDH (muscle lactate dehydrogenase); assay type: biochemical, Neohelice granulata; details: 150 uM NADH, 80 mM imidazole-HCl pH 6.9, 15 °C (FRT); read-out: Km^Pyr / (mM) / FRT
T2 construct: native, not purified; supernatant of abdominal muscle homogenate, pooled crabs, Rio Grande, Brazil

[5] = test system: T1, LDH (muscle lactate dehydrogenase); assay type: biochemical, Goniopsis cruentata; details: 150 uM NADH, 80 mM imidazole-HCl pH 6.9, 26 °C (FRT); read-out: Km^Pyr / (mM) / FRT
[6] = test system: T2, LDH (muscle lactate dehydrogenase); assay type: biochemical, Armases rubripes; details: 150 uM NADH, 80 mM imidazole-HCl pH 6.9, 15 °C (FRT); read-out: Km^Pyr / (mM) / FRT
[7] = test system: T3, LDH (muscle lactate dehydrogenase); assay type: biochemical, Acanthocyclus albatrossis; details: 150 uM NADH, 80 mM imidazole-HCl pH 6.9, 9 °C (FRT); read-out: Km^Pyr / (mM) / FRT
T3 construct: native, not purified; supernatant of abdominal muscle homogenate, pooled crabs, Ushuaia, Argentina

[8] = test system: T2, LDH (muscle lactate dehydrogenase); assay type: biochemical, Leptuca uruguayensis; details: 150 uM NADH, 80 mM imidazole-HCl pH 6.9, 15 °C (FRT); read-out: Km^Pyr / (mM) / FRT
[9] = test system: T1, LDH (muscle lactate dehydrogenase); assay type: biochemical, Ocypode quadrata; details: 150 uM NADH, 80 mM imidazole-HCl pH 6.9, 26 °C (FRT); read-out: Km^Pyr / (mM) / FRT
[10] = test system: T1, LDH (muscle lactate dehydrogenase); assay type: biochemical, Uca maracoani; details: 150 uM NADH, 80 mM imidazole-HCl pH 6.9, 26 °C (FRT); read-out: Km^Pyr / (mM) / FRT
[11] = test system: T1, LDH (muscle lactate dehydrogenase); assay type: biochemical, Ucides cordatus; details: 150 uM NADH, 80 mM imidazole-HCl pH 6.9, 26 °C (FRT); read-out: Km^Pyr / (mM) / FRT
[12] = test system: T3, LDH (muscle lactate dehydrogenase); assay type: biochemical, Halicarcinus planatus; details: 150 uM NADH, 80 mM imidazole-HCl pH 6.9, 9 °C (FRT); read-out: Km^Pyr / (mM) / FRT

Km [1]: 0.11 mM | Km [2]: 0.2 ± 0.01 mM | Km [3]: 0.17 ± 0.01 mM | Km [4]: 0.32 ± 0.03 mM | Km [5]: 0.1 mM | Km [6]: 0.15 ± 0.01 mM | Km [7]: 0.3 mM | Km [8]: 0.16 mM | Km [9]: 0.15 ± 0.02 mM | Km [10]: 0.49 ± 0.05 mM | Km [12]: 0.5 mM
Structure (SMILES): CC(=O)C(=O)O [pyruvate]
Km [11]: 0.17 ± 0.01 mM
